The values below are quoted from earlier work in patent publication US20050114109A1, “STRUCTURE OF INTEGRIN ALPHA V-beta 3 EXTRACELLULAR DOMAIN COMPLEXED WITH LIGAND” (priority 2002, published 2005).

The test system of the data set is native or extracellular αVβ3. Conditions: physiologic ligands, from Mehta et al. 1998 and Dechantsreiter et al. 1999, read-out: IC50, competes with binding of physiologic ligands to αVβ3.
Sequence of native or extracellular αVβ3 (P06756 31-889 limits assumed): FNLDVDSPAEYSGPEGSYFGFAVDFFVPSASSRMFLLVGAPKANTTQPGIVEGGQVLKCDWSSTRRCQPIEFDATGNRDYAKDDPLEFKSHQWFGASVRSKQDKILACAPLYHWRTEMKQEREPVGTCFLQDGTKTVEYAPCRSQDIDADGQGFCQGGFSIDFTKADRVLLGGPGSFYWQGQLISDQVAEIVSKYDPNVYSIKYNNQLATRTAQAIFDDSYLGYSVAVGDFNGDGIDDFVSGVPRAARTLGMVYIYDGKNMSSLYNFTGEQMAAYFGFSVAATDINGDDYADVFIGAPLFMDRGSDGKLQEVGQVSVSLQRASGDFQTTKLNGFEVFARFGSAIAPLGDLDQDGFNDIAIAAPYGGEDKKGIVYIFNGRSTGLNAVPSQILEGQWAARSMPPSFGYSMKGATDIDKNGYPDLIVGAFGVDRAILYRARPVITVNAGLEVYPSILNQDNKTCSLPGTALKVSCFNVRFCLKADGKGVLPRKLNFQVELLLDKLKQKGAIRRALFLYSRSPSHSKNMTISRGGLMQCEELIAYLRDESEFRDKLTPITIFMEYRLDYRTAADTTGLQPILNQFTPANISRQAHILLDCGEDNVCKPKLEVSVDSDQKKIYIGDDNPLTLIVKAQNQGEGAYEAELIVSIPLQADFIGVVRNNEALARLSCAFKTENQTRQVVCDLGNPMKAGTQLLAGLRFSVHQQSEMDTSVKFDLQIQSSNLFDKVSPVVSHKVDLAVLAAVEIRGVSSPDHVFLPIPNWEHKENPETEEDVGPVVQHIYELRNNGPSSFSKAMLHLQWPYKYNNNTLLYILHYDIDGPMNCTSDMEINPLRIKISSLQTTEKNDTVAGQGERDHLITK
Sequence of native or extracellular αVβ3 (P06756 891-987 limits assumed): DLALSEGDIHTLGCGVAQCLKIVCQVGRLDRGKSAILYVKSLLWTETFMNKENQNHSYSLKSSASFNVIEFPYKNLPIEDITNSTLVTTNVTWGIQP
Sequence of native or extracellular αVβ3 (P05106 27-625 limits assumed, further chain): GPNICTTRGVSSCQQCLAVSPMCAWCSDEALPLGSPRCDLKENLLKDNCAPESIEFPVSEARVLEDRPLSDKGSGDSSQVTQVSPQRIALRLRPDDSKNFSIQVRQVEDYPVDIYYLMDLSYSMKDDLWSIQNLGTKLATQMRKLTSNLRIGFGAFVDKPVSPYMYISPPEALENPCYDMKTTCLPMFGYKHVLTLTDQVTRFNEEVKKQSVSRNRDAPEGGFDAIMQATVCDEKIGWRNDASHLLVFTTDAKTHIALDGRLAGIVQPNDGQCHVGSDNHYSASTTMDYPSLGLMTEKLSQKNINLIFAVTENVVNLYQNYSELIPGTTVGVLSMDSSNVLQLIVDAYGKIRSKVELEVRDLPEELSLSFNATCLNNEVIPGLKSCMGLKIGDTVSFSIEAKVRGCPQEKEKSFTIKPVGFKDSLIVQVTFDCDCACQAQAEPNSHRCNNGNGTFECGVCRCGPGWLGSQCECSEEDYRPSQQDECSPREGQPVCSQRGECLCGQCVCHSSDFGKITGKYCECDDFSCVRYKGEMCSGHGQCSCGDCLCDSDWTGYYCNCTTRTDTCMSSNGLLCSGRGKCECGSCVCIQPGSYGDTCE

For orientation: IC50 means the concentration that gives 50% inhibition. For the substance “Arg-Gly-Asp-(D-Phe)-(N-methyl-Val) [Cyclo(RGDf-N-Me-V), cyclic pentapeptide ligand of αVβ3, in clinical trials as an anti-angiogenic therapeutic]”, the IC50 is 0.5 to 3 nM.
